# Reference: patent US10294290B2, “Polypeptides derived from calcitonin receptors and methods of use” (The Research Foundation For The State University of New York, priority 2010, dated 2019)
# [ ]: non-standard residue; d: D form. pGlu = O=C1CC[C@@H](C(=O)O)N1
# Columns and labels:
# [1] = tested on: immortalized human fetal osteoblast cell line, hFOB 1.19; experiment: Bone matrix formation, Alizarin Red staining, differentiated osteoblasts; assay type: cell-based; settings: for calcium deposits (Alizarin dye, fluorescent images): 12.5 μM
# Experimental: The effect of CRP on differentiated osteoblasts was analyzed in an immortalized human fetal osteoblast cell line, hFOB 1.19. hFOB cells were incubated for 48 hours in increasing concentrations of CRP (4.6 μM, 9.2 μM, 13.8 μM and 18.4 μM). Bone matrix formation was assayed using a Millipore Osteogenesis Quantitation kit as described above. Phase contrast and fluorescent images of the Alizarin Red stained cells were acquired using an Olympus-IMT microscope according to the manufacturer's (Millipore) specifications. […] Increased bone matrix deposition was also detectable by fluorescence microscopy. Non-amidated CRP had no effect on bone matrix formation.
# The sequence specificity of the effect of CRP on bone matrix formation was evaluated using the scrambled peptide, {pGln}NFWQWWIQARKQ (SEQ ID NO:51), which was amidated at the C-terminus. hFOB cells were treated as described above with 18.4 μM of the scrambled peptide, and bone matrix formation was assayed with the Millipore Osteogenesis Quantitation kit as described above.
# In cell culture, we also studied the effect of amino acid substitutions in CRP on the formation of bone matrix. hFOB cells were treated with human CRP (KRQWAQFKIQWNQR; SEQ ID NO:42) and, separately, mouse CRP (KRQWTQFKIQWSQR; SEQ ID NO:43) before staining with Alizarin dye to identify the matrix that is formed. Fluorescent images were acquired using an Olympus-IMP microsope.
# [2] = tested on: ovariectomized (OVX) rats; experiment: Micro-CT of cortical bone from femoral midshafts; assay type: in vivo, Sprague Dawley rats; settings: 15 μM (1 mL) intraperitoneal, five times per week for five weeks, vs vehicle, p<0.05 ANCOVA
# Experimental: We performed a micro-CT analysis of cortical bone from the femoral midshafts of ovariectomized (OVX) rats treated with 50% DMSO (OVX Vehicle) or 15 μM rat CRP (OVX 15 μM) Sprague Dawley rats (n=12/group) were ovariectomized at 6 months of age and allowed to lose bone for one month prior to treatment. They were then administered vehicle or 15 μM CRP (1 mL), via intraperitoneal injection, five times per week for five weeks. The animals were then sacrificed and their femora were harvested. The femora were scanned using microCT (Scanco uCT40) and 1.8 mm-long mid-diaphyseal regions of interest were analyzed.
substance,measurement,setting,value
KRQWAQFKIQWNQR (listed as Homo sapiens) [hCRP],"calcium deposits (Alizarin dye, fluorescent images)",[1],produced calcium deposits
KRQWTQFKIQWSQR (listed as Mus sp.) [mCRP],"calcium deposits (Alizarin dye, fluorescent images)",[1],produced calcium deposits
"rat CRP: rat calcitonin receptor-derived polypeptide (rat homologue, SEQ ID NO:47, shown in FIG. 2) (KRQWAQFKIQWSHRWGRR; listed as Rattus norvegicus)",average periosteal surface,[2],significantly greater
same,average periosteal volume,[2],significantly greater
same,average polar moment of inertia,[2],significantly greater
same,maximum principal moment of inertia,[2],significantly greater
same,minimum principal moment of inertia,[2],significantly greater
"{pGln}NFWQWWIQARKQ ([pGlu]NFWQWWIQARKQ-NH2; SMILES CC[C@H](C)[C@H](NC(=O)[C@H](Cc1c[nH]c2ccccc12)NC(=O)[C@H](Cc1c[nH]c2ccccc12)NC(=O)[C@H](CCC(N)=O)NC(=O)[C@H](Cc1c[nH]c2ccccc12)NC(=O)[C@H](Cc1ccccc1)NC(=O)[C@H](CC(N)=O)NC(=O)[C@@H]1CCC(=O)N1)C(=O)N[C@@H](CCC(N)=O)C(=O)N[C@@H](C)C(=O)N[C@@H](CCCNC(=N)N)C(=O)N[C@@H](CCCCN)C(=O)N[C@@H](CCC(N)=O)C(N)=O) [scrambled peptide, scrambled control peptide, same amino acids as CRP in scrambled order, reference compound]",bone matrix formation,[1]; 18.4 μM,did not induce bone matrix formation
